Results taken from ChEMBL document CHEMBL1133923, “Evolution of anti-HIV drug candidates. Part 3: Diarylpyrimidine (DAPY) analogues” (Bioorg Med Chem Lett, 2001).

Tests used:
Assay in all cases: microbe, parasite or virus in culture
[1] = tested on: Human immunodeficiency virus 1; conditions: Human immunodeficiency virus 1, MT4
Description: Inhibitory activity against 103N strain of HIV-I in MT-4 cells

[2] = tested on: Human immunodeficiency virus 1; conditions: Human immunodeficiency virus 1, MT4; remark: listed apart in the source
Description: Inhibitory activity against 100I strain of HIV-I in MT-4 cells

[3] = tested on: Human immunodeficiency virus 1; conditions: Human immunodeficiency virus 1, MT4; remark: listed apart in the source
Description: Inhibitory activity against 188L strain of HIV-I in MT-4 cells

[4] = tested on: Human immunodeficiency virus 1; conditions: Human immunodeficiency virus 1, MT4; remark: listed apart in the source
Description: Inhibitory activity against LAI strain of HIV-I in MT-4 cells

[5] = tested on: Human immunodeficiency virus 1; format: functional, organism-based, MT4
Description: Inhibitory activity against 103N strain and 181C strain of HIV-I in MT-4 cells

[6] = tested on: Human immunodeficiency virus 1; conditions: Human immunodeficiency virus 1, MT4; remark: listed apart in the source
Description: Inhibitory activity against 100I strain and 103N strain of HIV-I in MT-4 cells

[7] = tested on: Human immunodeficiency virus 1; conditions: Human immunodeficiency virus 1, MT4; remark: listed apart in the source
Description: Inhibitory activity against 181C strain of HIV-I in MT-4 cells

[8] = Human immunodeficiency virus 1, MT4

| SMILES | IC50 [1] [µM] | IC50 [2] [µM] | IC50 [3] [µM] | IC50 [4] [µM] | IC50 [5, 8] [µM] | IC50 [6] [µM] | IC50 [7] [µM] | IC50 ([5]; mt4) [µM] |
| --- | --- | --- | --- | --- | --- | --- | --- | --- |
| Cc1cc(C#N)cc(C)c1Nc1nc(Nc2ccc(C#N)cc2)ncc1Cl | 0.0009 | 0.0052 | 0.0047 | 0.0012 | 0.069 | 0.144 | 0.014 |  |
| N#Cc1ccc(Nc2nccc(Nc3c(Cl)cc(Cl)cc3Cl)n2)cc1 | 0.003 | 0.014 | 0.099 | 0.0007 |  | > 10 | 0.01 |  |
| C#Cc1cnc(Nc2ccc(C#N)cc2)nc1Nc1c(C)cc(C)cc1C | 0.0062 |  |  |  | 0.042 | 0.071 |  |  |
| N#Cc1ccc(Nc2nc(N)nc(Cc3c(Cl)cccc3Cl)n2)cc1 |  |  |  | 0.006 |  |  |  |  |
| CC(C)Nc1cccnc1N1CCN(C(=O)c2cc3cc(NS(C)(=O)=O)ccc3[nH]2)CC1 [DELAVIRDINE] | 2.51 | 2.51 | 1.26 | 0.063 | 20 |  | 2 |  |
| Cc1cc(C#N)cc(C)c1Oc1nc(Nc2ccc(C#N)cc2)nc(N)c1Br [ETRAVIRINE] | 0.0012 | 0.0033 | 0.0046 | 0.0014 | 0.0043 | 0.019 | 0.007 |  |
| Cc1cc(C)c(Oc2ccnc(Nc3ccc(C#N)cc3)n2)c(C)c1 | 0.003 | 0.022 | 0.055 | 0.0029 | 1.1 | 8.2 | 0.038 |  |
| Cc1cc(C#N)cc(C)c1Nc1ccnc(Nc2ccc(C#N)cc2)n1 | 0.0019 | 0.034 | 0.0078 | 0.0004 |  | 1.09 | 0.0071 | 0.037 |
| Cc1cc(C)c(Sc2ccnc(Nc3ccc(C#N)cc3)n2)c(C)c1 | 0.012 | 0.054 | 0.02 | 0.0036 |  | 4.79 | 0.025 |  |
| Cc1cc(C)c(Nc2nc(Nc3ccc(C#N)cc3)ncc2Cl)c(C)c1 | 0.006 | 0.017 | 0.034 | 0.0027 | 0.138 | 0.319 | 0.032 |  |
| Cc1cc(Br)cc(C)c1Sc1ccnc(Nc2ccc(C#N)cc2)n1 | 0.039 | 0.174 | 0.044 | 0.0057 | 0.354 | 3.89 | 0.068 |  |
| N#Cc1ccc(Nc2cc(Cc3c(Cl)cccc3Cl)nc(N)n2)cc1 | 33.3 | 96.6 | > 100 | 0.01 |  |  | > 100 |  |
| Cc1cc(C)c(Nc2ccnc(Nc3ccc(C#N)cc3)n2)c(C)c1 [DAPIVIRINE] | 0.0043 | 0.018 | 0.048 | 0.001 | 0.044 | > 10 | 0.0075 |  |
| N#Cc1ccc(Nc2nccc(Nc3c(F)cc(Br)cc3Br)n2)cc1 | 0.0057 | 0.015 | 0.064 | 0.0006 |  | > 10 | 0.015 |  |
| Cc1cc(C)c(Nc2nc(Nc3ccc(C#N)cc3)ncc2C#N)c(C)c1 | 0.0034 | 0.063 | 0.077 | 0.001 |  |  | 0.04 |  |
| CC(=O)Nc1cnc(Nc2ccc(C#N)cc2)nc1Oc1c(C)cc(C#N)cc1C | 0.0033 |  |  |  | 0.03 | 0.205 |  |  |
| Cc1cccc(C)c1Nc1ccnc(Nc2ccc(C#N)cc2)n1 | 0.028 | 0.212 | 0.26 | 0.0007 |  | > 10 | 0.061 |  |
| Cc1cc(C#N)cc(C)c1Oc1nc(Nc2ccc(C#N)cc2)ncc1[N+](=O)[O-] | 0.01 | 0.121 | 0.782 | 0.018 | 0.194 | > 10 | 0.304 |  |
| Cc1cc(C#N)cc(C)c1Oc1nc(Nc2ccc(C#N)cc2)ncc1Br | 0.0014 | 0.0066 | 0.0059 | 0.0014 | 0.025 | 0.049 | 0.022 |  |

| SMILES | IC50 [1] [µM] | IC50 [2] [µM] | IC50 [3] [µM] | IC50 [4] [µM] | IC50 [5, 8] [µM] | IC50 [6] [µM] | IC50 [7] [µM] | IC50 ([5]; mt4) [µM] |
| --- | --- | --- | --- | --- | --- | --- | --- | --- |
| Cc1cc(C)c(Nc2nc(Nc3ccc(C#N)cc3)ncc2-c2ccccc2)c(C)c1 |  |  |  | 0.024 |  |  |  |  |
| Cc1cc(Cl)cc(Cl)c1Nc1ccnc(Nc2ccc(C#N)cc2)n1 | 0.013 | 0.06 | 0.086 | 0.001 |  | > 10 | 0.018 |  |
| Cc1cc(Br)cc(C)c1Oc1ccnc(Nc2ccc(C#N)cc2)n1 | 0.0047 | 0.113 | 0.079 | 0.0029 | 0.217 | 2.37 | 0.059 |  |
| N#Cc1ccc(Nc2nc(N)cc(Cc3c(Cl)cccc3Cl)n2)cc1 | 0.012 | 0.299 | 0.071 | 0.001 |  |  | 0.175 |  |
| Cc1cc(C#N)cc(C)c1Oc1nc(Nc2ccc(C#N)cc2)ncc1Cl | 0.0026 | 0.0075 | 0.0048 | 0.0014 | 0.038 | 0.138 | 0.034 |  |
| Cc1cc(C)c(Nc2nc(Nc3ccc(C#N)cc3)ncc2Br)c(C)c1 | 0.0073 | 0.011 | 0.027 | 0.0055 | 0.283 | 0.348 | 0.036 |  |
| Cc1cc(Br)cc(C)c1Nc1ccnc(Nc2ccc(C#N)cc2)n1 | 0.012 | 0.076 | 0.069 | 0.0023 | 0.15 | > 100 | 0.017 |  |
| C=Cc1cnc(Nc2ccc(C#N)cc2)nc1Nc1c(C)cc(C)cc1C | 0.0058 | 0.035 | 0.029 | 0.0025 | 0.106 | > 100 | 0.036 |  |
| Cc1cc(Cl)cc(C)c1Nc1ccnc(Nc2ccc(C#N)cc2)n1 | 0.013 | 0.327 | 0.115 | 0.0021 | 0.401 | > 10 | 0.019 |  |
| C#Cc1cc(C)c(Oc2ccnc(Nc3ccc(C#N)cc3)n2)c(C)c1 | 0.012 | 0.185 | 0.05 | 0.0055 | 0.793 | 4.19 | 0.171 |  |
| Cc1cc(C#N)cc(C)c1Nc1nc(Nc2ccc(C#N)cc2)ncc1C#N | 0.0026 | 0.091 | 0.0086 | 0.0005 | 0.181 | 0.312 | 0.076 |  |
| Cc1cc(C)c(Nc2nc(Nc3ccc(C#N)cc3)ncc2C)c(C)c1 | 0.0026 | 0.012 | 0.018 | 0.0017 | 0.053 | > 100 | 0.012 |  |
| Cc1cnc(Nc2ccc(C#N)cc2)nc1Nc1c(C)cc(C#N)cc1C | 0.0017 | 0.016 | 0.016 | 0.0008 | 0.162 | > 10 | 0.012 |  |
| Cc1cc(C#N)cc(C)c1Nc1nc(Nc2ccc(C#N)cc2)ncc1Br | 0.0004 | 0.007 | 0.0033 | 0.0004 |  | 0.037 | 0.0096 | 0.032 |
| Cc1cc(C#N)cc(C)c1Oc1nc(Nc2ccc(C#N)cc2)ncc1N | 0.0013 | 0.016 | 0.0057 | 0.001 | 0.014 | 0.282 | 0.0093 |  |
| Cc1cc(C#N)cc(C)c1Oc1ccnc(Nc2ccc(C#N)cc2)n1 | 0.0027 | 0.073 | 0.019 | 0.0011 |  | 0.798 | 0.037 | 0.094 |
| N#Cc1ccc(Nc2cc(N)nc(Cc3c(Cl)cccc3Cl)n2)cc1 | > 100 | > 100 | > 100 | 0.452 |  |  | > 100 |  |
| Cc1cc(Br)c(Nc2ccnc(Nc3ccc(C#N)cc3)n2)c(Br)c1 | 0.003 | 0.003 | > 100 | 0.0007 | 0.133 | > 100 | 0.0034 |  |
